Patent US11661413B2, “Pyrazole compounds or salts thereof, preparation method therefor, herbicidal composition and use thereof” (priority 2015, dated 2023)

System: barnyard grass, rushlike bulrush, arrowhead and beggartick
Test: resistance tests of the weeds collected from Heilongjing Province
Type: in vivo
Details: common application rate; seeds collected from Heilongjing Province of China

## CCOC(=O)c1cnn(C)c1S(=O)(=O)NC(=O)Nc1nc(OC)cc(OC)n1 [pyrazosulfuron-ethyl]
  resistance of the weeds (in words): resistant
